From PubChem BioAssay (NCI)
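48-hour exposure; five concentrations; linearly interpolated endpoints. GI50 = concentration required for 50% inhibition of growth. At the TGI there is no net growth.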

Experiments:
Experiment in all cases: NCI-60 cell line screen, 48 h
PC-3 prostate = test system: PC-3 prostate
UO-31 renal = test system: UO-31 renal
OVCAR-5 ovarian = test system: OVCAR-5 ovarian
U251 CNS = test system: U251 CNS
MALME-3M melanoma = test system: MALME-3M melanoma
MDA-MB-435 = test system: MDA-MB-435
SF-268 CNS = test system: SF-268 CNS
CCRF-CEM leukemia = test system: CCRF-CEM leukemia
SR leukemia = test system: SR leukemia
OVCAR-3 ovarian = test system: OVCAR-3 ovarian
SK-MEL-28 melanoma = test system: SK-MEL-28 melanoma
SN12C renal = test system: SN12C renal
SF-539 CNS = test system: SF-539 CNS
SK-OV-3 ovarian = test system: SK-OV-3 ovarian
TK-10 renal = test system: TK-10 renal
COLO 205 colon = test system: COLO 205 colon
MCF7 breast = test system: MCF7 breast
MDA-MB-231 breast = test system: MDA-MB-231 breast
MOLT-4 leukemia = test system: MOLT-4 leukemia
DU-145 prostate = test system: DU-145 prostate
SNB-75 CNS = test system: SNB-75 CNS
UACC-62 melanoma = test system: UACC-62 melanoma
OVCAR-8 ovarian = test system: OVCAR-8 ovarian
HS 578T breast = test system: HS 578T breast
A549 NSCLC = test system: A549 NSCLC
SK-MEL-5 melanoma = test system: SK-MEL-5 melanoma
NCI-H23 lung = test system: NCI-H23 lung
A498 renal = test system: A498 renal
IGROV1 ovarian = test system: IGROV1 ovarian
ACHN renal = test system: ACHN renal
SW-620 colon = test system: SW-620 colon
HT29 colon = test system: HT29 colon
RPMI-8226 leukemia = test system: RPMI-8226 leukemia
T-47D breast = test system: T-47D breast
NCI-H226 lung = test system: NCI-H226 lung
SF-295 CNS = test system: SF-295 CNS
SNB-19 CNS = test system: SNB-19 CNS
KM12 colon = test system: KM12 colon
HOP-92 NSCLC = test system: HOP-92 NSCLC
BT-549 breast = test system: BT-549 breast
NCI-H522 lung = test system: NCI-H522 lung
786-0 renal = test system: 786-0 renal
HCC-2998 colon = test system: HCC-2998 colon
HOP-62 NSCLC = test system: HOP-62 NSCLC
SK-MEL-2 melanoma = test system: SK-MEL-2 melanoma
K-562 leukemia = test system: K-562 leukemia
HCT-116 colon = test system: HCT-116 colon
HCT-15 colon = test system: HCT-15 colon
LOX IMVI melanoma = test system: LOX IMVI melanoma
EKVX NSCLC = test system: EKVX NSCLC
RXF 393 renal = test system: RXF 393 renal
NCI-H460 lung = test system: NCI-H460 lung
CAKI-1 renal = test system: CAKI-1 renal
OVCAR-4 ovarian = test system: OVCAR-4 ovarian
NCI/ADR-RES ovarian = test system: NCI/ADR-RES ovarian
UACC-257 melanoma = test system: UACC-257 melanoma

COc1ccc(C2CC(=O)c3c(OC)cc(OC)cc3O2)cc1 (configuration not stated)
GI50 (PC-3 prostate): > 100 µM
TGI (PC-3 prostate): > 100 µM
GI50 (UO-31 renal): > 100 µM
TGI (UO-31 renal): > 100 µM
GI50 (OVCAR-5 ovarian): > 100 µM
TGI (OVCAR-5 ovarian): > 100 µM
GI50 (U251 CNS): > 100 µM
TGI (U251 CNS): > 100 µM
GI50 (MALME-3M melanoma): > 100 µM
TGI (MALME-3M melanoma): > 100 µM
GI50 (MDA-MB-435): > 100 µM
TGI (MDA-MB-435): > 100 µM
GI50 (SF-268 CNS): > 100 µM
TGI (SF-268 CNS): > 100 µM
GI50 (CCRF-CEM leukemia): 4.2 µM
TGI (CCRF-CEM leukemia): > 100 µM
GI50 (SR leukemia): > 100 µM
TGI (SR leukemia): > 100 µM
GI50 (OVCAR-3 ovarian): > 100 µM
TGI (OVCAR-3 ovarian): > 100 µM
GI50 (SK-MEL-28 melanoma): > 100 µM
TGI (SK-MEL-28 melanoma): > 100 µM
GI50 (SN12C renal): > 100 µM
TGI (SN12C renal): > 100 µM
GI50 (SF-539 CNS): > 100 µM
TGI (SF-539 CNS): > 100 µM
GI50 (SK-OV-3 ovarian): > 100 µM
TGI (SK-OV-3 ovarian): > 100 µM
GI50 (TK-10 renal): > 100 µM
TGI (TK-10 renal): > 100 µM
GI50 (COLO 205 colon): > 100 µM
TGI (COLO 205 colon): > 100 µM
GI50 (MCF7 breast): > 100 µM
TGI (MCF7 breast): > 100 µM
GI50 (MDA-MB-231 breast): > 100 µM
TGI (MDA-MB-231 breast): > 100 µM
GI50 (MOLT-4 leukemia): > 100 µM
TGI (MOLT-4 leukemia): > 100 µM
GI50 (DU-145 prostate): > 100 µM
TGI (DU-145 prostate): > 100 µM
GI50 (SNB-75 CNS): > 100 µM
TGI (SNB-75 CNS): > 100 µM
GI50 (UACC-62 melanoma): > 100 µM
TGI (UACC-62 melanoma): > 100 µM
GI50 (OVCAR-8 ovarian): > 100 µM
TGI (OVCAR-8 ovarian): > 100 µM
GI50 (HS 578T breast): > 100 µM
TGI (HS 578T breast): > 100 µM
GI50 (A549 NSCLC): > 100 µM
TGI (A549 NSCLC): > 100 µM
GI50 (SK-MEL-5 melanoma): > 100 µM
TGI (SK-MEL-5 melanoma): > 100 µM
GI50 (NCI-H23 lung): > 100 µM
TGI (NCI-H23 lung): > 100 µM
GI50 (A498 renal): > 100 µM
TGI (A498 renal): > 100 µM
GI50 (IGROV1 ovarian): > 100 µM
TGI (IGROV1 ovarian): > 100 µM
GI50 (ACHN renal): > 100 µM
TGI (ACHN renal): > 100 µM
GI50 (SW-620 colon): > 100 µM
TGI (SW-620 colon): > 100 µM
GI50 (HT29 colon): > 100 µM
TGI (HT29 colon): > 100 µM
GI50 (RPMI-8226 leukemia): > 100 µM
TGI (RPMI-8226 leukemia): > 100 µM
GI50 (T-47D breast): > 100 µM
TGI (T-47D breast): > 100 µM
GI50 (NCI-H226 lung): > 100 µM
TGI (NCI-H226 lung): > 100 µM
GI50 (SF-295 CNS): > 100 µM
TGI (SF-295 CNS): > 100 µM
GI50 (SNB-19 CNS): > 100 µM
TGI (SNB-19 CNS): > 100 µM
GI50 (KM12 colon): > 100 µM
TGI (KM12 colon): > 100 µM
GI50 (HOP-92 NSCLC): 18.4 µM
TGI (HOP-92 NSCLC): > 100 µM
GI50 (BT-549 breast): > 100 µM
TGI (BT-549 breast): > 100 µM
GI50 (NCI-H522 lung): > 100 µM
TGI (NCI-H522 lung): > 100 µM
GI50 (786-0 renal): > 100 µM
TGI (786-0 renal): > 100 µM
GI50 (HCC-2998 colon): > 100 µM
TGI (HCC-2998 colon): > 100 µM
GI50 (HOP-62 NSCLC): > 100 µM
TGI (HOP-62 NSCLC): > 100 µM
GI50 (SK-MEL-2 melanoma): > 100 µM
TGI (SK-MEL-2 melanoma): > 100 µM
GI50 (K-562 leukemia): > 100 µM
TGI (K-562 leukemia): > 100 µM
GI50 (HCT-116 colon): > 100 µM
TGI (HCT-116 colon): > 100 µM
GI50 (HCT-15 colon): > 100 µM
TGI (HCT-15 colon): > 100 µM
GI50 (LOX IMVI melanoma): > 100 µM
TGI (LOX IMVI melanoma): > 100 µM
GI50 (EKVX NSCLC): > 100 µM
TGI (EKVX NSCLC): > 100 µM
GI50 (RXF 393 renal): > 100 µM
TGI (RXF 393 renal): > 100 µM
GI50 (NCI-H460 lung): > 100 µM
TGI (NCI-H460 lung): > 100 µM
GI50 (CAKI-1 renal): > 100 µM
TGI (CAKI-1 renal): > 100 µM
GI50 (OVCAR-4 ovarian): > 100 µM
TGI (OVCAR-4 ovarian): > 100 µM
GI50 (NCI/ADR-RES ovarian): > 100 µM
TGI (NCI/ADR-RES ovarian): > 100 µM
GI50 (UACC-257 melanoma): > 100 µM
TGI (UACC-257 melanoma): > 100 µM
